Reference: ChEMBL document CHEMBL3596127, “Design, synthesis and molecular docking of novel bipyrazolyl thiazolone scaffold as a new class of antibacterial agents” (Medchemcomm, 2014)
Converted amounts (≈) assume the structure as drawn.

System: Bacillus spizizenii
Experiment: Antibacterial activity against Bacillus subtilis ATCC 6633 after 24 hrs by MTT assay
Assay type: functional
Details: ATCC 6633, 24 h

| SMILES | MIC [µg/mL] |
| --- | --- |
| Cc1nn(-c2ccccc2)c(-n2cnc3ccccc32)c1C1CC(c2cccs2)=NN1C1=NC(=O)/C(=C/c2ccco2)S1 (stereo not given) | 6.25 (≈ 10.4 µM) |
| Cc1nn(-c2ccccc2)c(-n2cncn2)c1C1CC(c2cccs2)=NN1C1=NC(=O)/C(=C/c2cccs2)S1 (stereo not given) | 25 (≈ 44 µM) |
| Cc1nn(-c2ccccc2)c(-n2ccnc2)c1C1CC(c2cccs2)=NN1C1=NC(=O)/C(=C/c2c[nH]c3ccccc23)S1 (stereo not given) | 25 (≈ 41.6 µM) |
| Cc1nn(-c2ccccc2)c(-n2cncn2)c1C1CC(c2cccs2)=NN1C1=NC(=O)/C(=C/c2ccco2)S1 (stereo not given) | 25 (≈ 45.2 µM) |
| CC1(C)S[C@@H]2[C@H](NC(=O)Cc3ccccc3)C(=O)N2[C@H]1C(=O)O [PENICILLIN G] | 1.56 (≈ 4.67 µM) |
| Cc1nn(-c2ccccc2)c(-n2cncn2)c1C1CC(c2cccs2)=NN1C1=NC(=O)/C(=C/c2c[nH]c3ccccc23)S1 (stereo not given) | 25 (≈ 41.5 µM) |
| NC[C@H]1O[C@H](O[C@H]2[C@H](O)[C@@H](O[C@H]3O[C@H](CO)[C@@H](O)[C@H](N)[C@H]3O)[C@H](N)C[C@@H]2N)[C@H](N)[C@@H](O)[C@@H]1O [BEKANAMYCIN] | 0.39 (≈ 0.807 µM) |

System: Pseudomonas aeruginosa
Experiment: Antibacterial activity against Pseudomonas aeruginosa ATCC 13525 after 24 hrs by MTT assay
Assay type: functional
Details: ATCC 13525, 24 h

| SMILES | MIC [µg/mL] |
| --- | --- |
| Cc1nn(-c2ccccc2)c(-n2cnc3ccccc32)c1C1CC(c2cccs2)=NN1C1=NC(=O)/C(=C/c2ccco2)S1 (stereo not given) | > 50 |
| Cc1nn(-c2ccccc2)c(-n2cncn2)c1C1CC(c2cccs2)=NN1C1=NC(=O)/C(=C/c2cccs2)S1 (stereo not given) | 50 (≈ 87.9 µM) |
| Cc1nn(-c2ccccc2)c(-n2ccnc2)c1C1CC(c2cccs2)=NN1C1=NC(=O)/C(=C/c2c[nH]c3ccccc23)S1 (stereo not given) | 3.13 (≈ 5.21 µM) |
| Cc1nn(-c2ccccc2)c(-n2cncn2)c1C1CC(c2cccs2)=NN1C1=NC(=O)/C(=C/c2ccco2)S1 (stereo not given) | 50 (≈ 90.5 µM) |
| CC1(C)S[C@@H]2[C@H](NC(=O)Cc3ccccc3)C(=O)N2[C@H]1C(=O)O [PENICILLIN G] | 6.25 (≈ 18.7 µM) |
| Cc1nn(-c2ccccc2)c(-n2cncn2)c1C1CC(c2cccs2)=NN1C1=NC(=O)/C(=C/c2c[nH]c3ccccc23)S1 (stereo not given) | > 50 |
| NC[C@H]1O[C@H](O[C@H]2[C@H](O)[C@@H](O[C@H]3O[C@H](CO)[C@@H](O)[C@H](N)[C@H]3O)[C@H](N)C[C@@H]2N)[C@H](N)[C@@H](O)[C@@H]1O [BEKANAMYCIN] | 3.13 (≈ 6.47 µM) |

System: Staphylococcus aureus
Experiment: Antibacterial activity against Staphylococcus aureus ATCC 6538 after 24 hrs by MTT assay
Assay type: functional
Details: ATCC 6538, 24 h

| SMILES | MIC [µg/mL] |
| --- | --- |
| Cc1nn(-c2ccccc2)c(-n2cnc3ccccc32)c1C1CC(c2cccs2)=NN1C1=NC(=O)/C(=C/c2ccco2)S1 (stereo not given) | 12.5 (≈ 20.8 µM) |
| Cc1nn(-c2ccccc2)c(-n2cncn2)c1C1CC(c2cccs2)=NN1C1=NC(=O)/C(=C/c2cccs2)S1 (stereo not given) | 6.25 (≈ 11 µM) |
| Cc1nn(-c2ccccc2)c(-n2ccnc2)c1C1CC(c2cccs2)=NN1C1=NC(=O)/C(=C/c2c[nH]c3ccccc23)S1 (stereo not given) | 50 (≈ 83.2 µM) |
| Cc1nn(-c2ccccc2)c(-n2cncn2)c1C1CC(c2cccs2)=NN1C1=NC(=O)/C(=C/c2ccco2)S1 (stereo not given) | > 50 |
| CC1(C)S[C@@H]2[C@H](NC(=O)Cc3ccccc3)C(=O)N2[C@H]1C(=O)O [PENICILLIN G] | 6.25 (≈ 18.7 µM) |
| Cc1nn(-c2ccccc2)c(-n2cncn2)c1C1CC(c2cccs2)=NN1C1=NC(=O)/C(=C/c2c[nH]c3ccccc23)S1 (stereo not given) | > 50 |
| NC[C@H]1O[C@H](O[C@H]2[C@H](O)[C@@H](O[C@H]3O[C@H](CO)[C@@H](O)[C@H](N)[C@H]3O)[C@H](N)C[C@@H]2N)[C@H](N)[C@@H](O)[C@@H]1O [BEKANAMYCIN] | 1.56 (≈ 3.23 µM) |

System: not listed separately
Experiment: Hemolytic activity in RBC (unknown origin)
Assay type: ADME, cell-based
Details: erythrocyte

| SMILES | LC30 [mg/mL] |
| --- | --- |
| Cc1nn(-c2ccccc2)c(-n2cnc3ccccc32)c1C1CC(c2cccs2)=NN1C1=NC(=O)/C(=C/c2ccco2)S1 (stereo not given) | > 10 |
| Cc1nn(-c2ccccc2)c(-n2cncn2)c1C1CC(c2cccs2)=NN1C1=NC(=O)/C(=C/c2cccs2)S1 (stereo not given) | > 10 |
| Cc1nn(-c2ccccc2)c(-n2ccnc2)c1C1CC(c2cccs2)=NN1C1=NC(=O)/C(=C/c2c[nH]c3ccccc23)S1 (stereo not given) | > 10 |
| Cc1nn(-c2ccccc2)c(-n2cncn2)c1C1CC(c2cccs2)=NN1C1=NC(=O)/C(=C/c2ccco2)S1 (stereo not given) | > 10 |
| Cc1nn(-c2ccccc2)c(-n2cncn2)c1C1CC(c2cccs2)=NN1C1=NC(=O)/C(=C/c2c[nH]c3ccccc23)S1 (stereo not given) | > 10 |
| NC[C@H]1O[C@H](O[C@H]2[C@H](O)[C@@H](O[C@H]3O[C@H](CO)[C@@H](O)[C@H](N)[C@H]3O)[C@H](N)C[C@@H]2N)[C@H](N)[C@@H](O)[C@@H]1O [BEKANAMYCIN] | > 10 |

System: Escherichia coli
Experiment: Antibacterial activity against Escherichia coli ATCC 35218 after 24 hrs by MTT assay
Assay type: functional
Details: ATCC 35218, 24 h

| SMILES | MIC [µg/mL] |
| --- | --- |
| Cc1nn(-c2ccccc2)c(-n2cnc3ccccc32)c1C1CC(c2cccs2)=NN1C1=NC(=O)/C(=C/c2ccco2)S1 (stereo not given) | > 50 |
| Cc1nn(-c2ccccc2)c(-n2cncn2)c1C1CC(c2cccs2)=NN1C1=NC(=O)/C(=C/c2cccs2)S1 (stereo not given) | 25 (≈ 44 µM) |
| Cc1nn(-c2ccccc2)c(-n2ccnc2)c1C1CC(c2cccs2)=NN1C1=NC(=O)/C(=C/c2c[nH]c3ccccc23)S1 (stereo not given) | 6.25 (≈ 10.4 µM) |
| Cc1nn(-c2ccccc2)c(-n2cncn2)c1C1CC(c2cccs2)=NN1C1=NC(=O)/C(=C/c2ccco2)S1 (stereo not given) | 50 (≈ 90.5 µM) |
| CC1(C)S[C@@H]2[C@H](NC(=O)Cc3ccccc3)C(=O)N2[C@H]1C(=O)O [PENICILLIN G] | 3.13 (≈ 9.36 µM) |
| Cc1nn(-c2ccccc2)c(-n2cncn2)c1C1CC(c2cccs2)=NN1C1=NC(=O)/C(=C/c2c[nH]c3ccccc23)S1 (stereo not given) | 12.5 (≈ 20.8 µM) |
| NC[C@H]1O[C@H](O[C@H]2[C@H](O)[C@@H](O[C@H]3O[C@H](CO)[C@@H](O)[C@H](N)[C@H]3O)[C@H](N)C[C@@H]2N)[C@H](N)[C@@H](O)[C@@H]1O [BEKANAMYCIN] | 1.56 (≈ 3.23 µM) |

System: not listed separately
Experiment: Inhibition of full-length N-terminal His-tagged Escherichia coli FabH expressed in Escherichia coli BL21 (DE3) using acetyl-CoA/[3H]-acetyl-CoA/holo-ACP as substrate by liquid scintillation counting analysis
Details: not given

| SMILES | IC50 [µM] |
| --- | --- |
| Cc1nn(-c2ccccc2)c(-n2cnc3ccccc32)c1C1CC(c2cccs2)=NN1C1=NC(=O)/C(=C/c2ccco2)S1 (stereo not given) | 8.5 |
| Cc1nn(-c2ccccc2)c(-n2cncn2)c1C1CC(c2cccs2)=NN1C1=NC(=O)/C(=C/c2cccs2)S1 (stereo not given) | 15.6 |
| Cc1nn(-c2ccccc2)c(-n2ccnc2)c1C1CC(c2cccs2)=NN1C1=NC(=O)/C(=C/c2c[nH]c3ccccc23)S1 (stereo not given) | 3.9 |
| Cc1nn(-c2ccccc2)c(-n2cncn2)c1C1CC(c2cccs2)=NN1C1=NC(=O)/C(=C/c2ccco2)S1 (stereo not given) | 26.1 |
| Cc1nn(-c2ccccc2)c(-n2cncn2)c1C1CC(c2cccs2)=NN1C1=NC(=O)/C(=C/c2c[nH]c3ccccc23)S1 (stereo not given) | 4.7 |
| NC[C@H]1O[C@H](O[C@H]2[C@H](O)[C@@H](O[C@H]3O[C@H](CO)[C@@H](O)[C@H](N)[C@H]3O)[C@H](N)C[C@@H]2N)[C@H](N)[C@@H](O)[C@@H]1O [BEKANAMYCIN] | 6.3 |
